Test results: patent US10881110B2, “Herbicidal compositions comprising isoxazolo[5,4-b]pyridines” (BASF SE, priority 2014, dated 2021)

Assays:
Experiment in all cases: greenhouse post-emergence herbicidal test
[1] = tested on: DIGSA; format: in vivo, Digitaria sanguinalis
Method: (§1) The culture containers used were plastic pots containing medium loamy sand with approximately 4.6% of humus and 69.9% sand as substrate. The seeds of the test plants were sown separately for each species.
(§2) For the post-emergence treatment, the test plants were grown to a plant height of from 1 to 15 cm, depending on the plant habit, and only then treated with the active compounds which had been suspended or emulsified in water. To this end, the test plants were either sown directly, and grown in the same containers, or they were first grown separately as seedlings and transplanted into the test containers a few days prior to treatment.
(§3) Depending on the species, the plants were kept at 10-25° C. and 20-35° C., respectively.
(§4) The test period extended over 1 to 3 weeks. During this time, the plants were tended and their response to the individual treatments was evaluated 20 days after treatment except mentioned otherwise.
(§5) Evaluation was carried out using a scale from 0 to 100. 100 means no emergence of the plants, or complete destruction of at least the above-ground parts, and 0 means no damage or normal course of growth.
(§6) The respective stated components A and B, and, if appropriate, C, were formulated as a 10% by weight strength emulsion concentrate and, with addition of the amount of solvent system, introduced into the spray liquor used for applying the active compound. In the examples, the solvent used was water.
(§7) In the examples below, using the method of S. R. Colby (1967) “Calculating synergistic and antagonistic responses of herbicide combinations”, Weeds 15, p. 22 ff., the value E, which is expected if the activity of the individual active compounds is only additive, was calculated. E=X+Y−(X·Y/100)

[2] = tested on: CONAR; format: in vivo, Convolvulus arvensis; parameters: key: rating on a scale from 0 to 100
Method: as §1, §2, §3, §4, §5, §6, §7

[3] = tested on: CHEAL; format: in vivo, Chenopodium album
Method: as §1, §2, §3, §4, §5, §6, §7

[4] = tested on: AMARE; format: in vivo, Amaranthus retroflexus
Method: as §1, §2, §3, §4, §5, §6, §7

[5] = tested on: GALAP; format: in vivo, Galium aparine; parameters: key to herbicidal activity against GALAP found: rating on a scale from 0 to 100; settings: post emergence
Summary of the method: (§8)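 Post-emergence greenhouse test: plants in loamy sand, sprayed at 1–15 cm height with aqueous spray liquor from 10% emulsion concentrates, kept at 10-25 °C or 20-35 °C by species. Damage scored 0–100 (100 = complete destruction), usually 20 days after treatment. Expected additive effect E from Colby: E=X+Y−(X·Y/100).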

[6] = tested on: ERICA; format: in vivo, Conyza canadensis; parameters: key to herbicidal activity against ERICA found: rating on a scale from 0 to 100; settings: post emergence
Summary of the method: (§9)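 Combination activity judged against additive expectation by Colby, E=X+Y−(X·Y/100), from 0–100 damage ratings taken 20 days post-spray. Plants at 1–15 cm in loamy sand (69.9% sand) were sprayed with components formulated as 10% w/w emulsion concentrate in water.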

[7] = tested on: MATCH; format: in vivo, Matricaria recutita; parameters: key to herbicidal activity against MATCH found: rating on a scale from 0 to 100; settings: post emergence
Summary of the method: as §9

[8] = tested on: AMBEL; format: in vivo, Ambrosia artemisiifolia; parameters: key: rating on a scale from 0 to 100
Method: as §1, §2, §3, §4, §5, §6, §7

[9] = tested on: VIOAR; format: in vivo, Viola arvensis; parameters: key to herbicidal activity against VIOAR found / herbicidal activity against VIOLA found: rating on a scale from 0 to 100; settings: post emergence
Summary of the method: as §8

[10] = tested on: SASKR; format: in vivo, Salsola kali; parameters: key: scale 0 to 100
Method: as §1, §2, §3, §4, §5, §6, §7

[11] = tested on: POLCO; format: in vivo, Polygonum convolvulus; parameters: key to herbicidal activity against POLCO found: rating on a scale from 0 to 100; settings: post emergence
Summary of the method: as §8

[12] = tested on: PAPRH; format: in vivo, Papaver rhoeas; parameters: key: rating on a scale from 0 to 100
Summary of the method: as §9

[13] = tested on: GERDI; format: in vivo, Geranium dissectum; parameters: key to herbicidal activity against GERDI found: rating on a scale from 0 to 100; settings: post emergence
Summary of the method: as §9

[14] = tested on: POLAV; format: in vivo, Polygonum aviculare; parameters: key: rating on a scale from 0 to 100
Method: as §1, §2, §3, §4, §5, §6, §7

[15] = tested on: LOLMU; format: in vivo, Lolium multiflorum; settings: a.i. g/ha: I.1 62.5, B.77 75, 20 days after treatment
Method: as §1, §2, §3, §4, §5, §6, §7

[16] = tested on: ALOMY; format: in vivo, Alopecurus myosuroides; parameters: key to herbicidal activity against ALOMY found: rating on a scale from 0 to 100; settings: post emergence; application rate a.i.: I.1 250 g/ha, B.193 15 g/ha, alone or as mixture (composition 1.193)
Summary of the method: as §9

[17] = tested on: ECHCG; format: in vivo, Echinochloa crus-galli; parameters: key to herbicidal activity against ECHCG found / herbicidal activity against ECHCH found: scale 0 to 100; settings: post emergence; application rate a.i.: I.1 250 g/ha, B.193 15 g/ha, alone or as mixture (composition 1.193)
Summary of the method: as §9

[18] = tested on: STEME; format: in vivo, Stellaria media; parameters: key: scale 0 to 100; settings: a.i. g/ha: I.1 31.25, B.190 62.5, 20 days after treatment
Method: as §1, §2, §3, §4, §5, §6, §7

[19] = tested on: IPOHE; format: in vivo, Ipomoea hederacea; parameters: key to herbicidal activity against IPOHE found: rating on a scale from 0 to 100; settings: post emergence, 20 days after treatment
Summary of the method: as §8

[20] = tested on: POLPE; format: in vivo, Persicaria maculosa; parameters: key: scale 0 to 100; settings: 20 g/ha a.i.
Method: as §1, §2, §3, §4, §5, §6, §7

[21] = a.i. g/ha: I.1 31.25, B.76 225, 20 days after treatment
[22] = a.i. g/ha: I.1 62.5, B.76 225, 20 days after treatment
[23] = application rate a.i.: I.1 31.25 g/ha, B.84 (paraquat-dichloride) 17.5 g/ha, alone or as mixture (composition 1.84)
[24] = application rate a.i.: I.1 62.5 g/ha, B.84 (paraquat-dichloride) 17.5 g/ha, alone or as mixture (composition 1.84)
[25] = a.i. g/ha: I.1 62.5, B.77 75, 20 days after treatment
[26] = application rate a.i.: I.1 250 g/ha, B.193 15 g/ha, alone or as mixture (composition 1.193)
[27] = a.i. g/ha: I.1 31.25, B.190 62.5, 20 days after treatment
[28] = a.i. g/ha: I.1 15.6, B.190 62.5, 20 days after treatment
[29] = a.i. g/ha: I.1 62.5, B.80 250, 20 days after treatment
[30] = a.i. g/ha: I.1 31.25, bentazon Na 125, 20 days after treatment

## CC(C)c1ccc(NC(=O)N(C)C)cc1 [B.76, isoproturon]
[1]; [21]
  herbicidal activity against DIGSA found: 30%
[1]; [22]
  herbicidal activity against DIGSA found: 30%
[2]; [22]
  herbicidal activity against CONAR found: 65%
[3]; [21]
  herbicidal activity against CHEAL found: 65%
[3]; [22]
  herbicidal activity against CHEAL found: 65%
[4]; [21]
  herbicidal activity against AMARE found: 50%

## C[n+]1ccc(-c2cc[n+](C)cc2)cc1 [B.84, paraquat-dichloride]
[5]; [23]
  herbicidal activity against GALAP found: 55
[2]; [24]
  herbicidal activity against CONAR found: 10
[6]; [23]
  herbicidal activity against ERICA found: 35
[7]; [24]
  herbicidal activity against MATCH found: 80
[8]; [23]
  herbicidal activity against AMBEL found: 90
[9]; [23]
  herbicidal activity against VIOAR found: 55
[9]; [24]
  herbicidal activity against VIOAR found: 55
[10]; [23]
  herbicidal activity against SASKR found: 70
[11]; [24]
  herbicidal activity against POLCO found: 30

## Cc1nn(C)c(O)c1C(=O)c1ccc(C(F)(F)F)cc1S(C)(=O)=O [pyrasulfatole]
[12]; 10 g/ha a.i.
  herbicidal activity against PAPRH found: 50
[12]; 20 g/ha a.i.
  herbicidal activity against PAPRH found: 65
[12]; 40 g/ha a.i.
  herbicidal activity against PAPRH found: 65
[2]; 10 g/ha a.i.
  herbicidal activity against CONAR found: 60
[2]; 20 g/ha a.i.
  herbicidal activity against CONAR found: 65
[2]; 40 g/ha a.i.
  herbicidal activity against CONAR found: 85
[7]; 10 g/ha a.i.
  herbicidal activity against MATCH found: 50
[7]; 40 g/ha a.i.
  herbicidal activity against MATCH found: 50
[13]; 40 g/ha a.i.
  herbicidal activity against GERDI found: 50
[9]; 10 g/ha a.i.
  herbicidal activity against VIOAR found: 0
[9]; 20 g/ha a.i.
  herbicidal activity against VIOAR found: 40
[9]; 40 g/ha a.i.
  herbicidal activity against VIOAR found: 60
[10]; 10 g/ha a.i.
  herbicidal activity against SASKAR found: 90
[14]; 20 g/ha a.i.
  herbicidal activity against POLAV found: 70

## CON(C)C(=O)Nc1ccc(Cl)c(Cl)c1 [B.77, linuron]
[5]; [25]
  herbicidal activity against GALAP found: 40%
[2]; [25]
  herbicidal activity against CONAR found: 50%
[15]
  herbicidal activity against LOLMU found: 35%

## Cc1ccccc1CO[C@H]1C[C@]2(C(C)C)CC[C@@]1(C)O2 (racemic) [B.193]
[16]
  herbicidal activity against ALOMY found: 0
[1]; [26]
  herbicidal activity against DIGSA found: 20
[13]; [26]
  herbicidal activity against GERDI found: 40
[17]
  herbicidal activity against ECHCG found: 40

## Cc1ccc(NC(=O)N(C)C)cc1Cl [B.190, chlorotoluron]
[13]; [27]
  herbicidal activity against GERDI found: 60%
[3]; [28]
  herbicidal activity against CHEAL found: 95%
[11]; [28]
  herbicidal activity against POLCO found: 50%
[11]; [27]
  herbicidal activity against POLCO found: 50%
[4]; [28]
  herbicidal activity against AMARE found: 40%
[4]; [27]
  herbicidal activity against AMARE found: 40%
[14]; [28]
  herbicidal activity against POLAV found: 50%
[18]
  herbicidal activity against STEME found: 70%
[19]; a.i. g/ha: I.1 15.6, B.190 62.5
  herbicidal activity against IPOHE found: 60%
[19]; a.i. g/ha: I.1 31.25, B.190 62.5
  herbicidal activity against IPOHE found: 60%

## CS(=O)(=O)c1ccc(C(=O)C2C(=O)CCCC2=O)c([N+](=O)[O-])c1 [B.101, mesotrione]
[12]; 9.375 g/ha a.i.
  herbicidal activity against PAPRH found: 35
[6]; Erigeron canadensis, post-emergence, 480 h, 9.375 g/ha a.i., read-out: herbicidal activity against ERICA found
  pest or weed control at 9.375 g/ha: 80%
[7]; Matricaria chamomilla, post-emergence, 480 h, 9.375 g/ha a.i., read-out: herbicidal activity against MATCH found
  pest or weed control at 9.375 g/ha: 75%
[13]; Geranium dissectum, post-emergence, 480 h, 9.375 g/ha a.i., read-out: herbicidal activity against GERDI found
  pest or weed control at 9.375 g/ha: 0%
[8]; 9.375 g/ha a.i.
  herbicidal activity against AMBEL found: 80
[10]; 9.375 g/ha a.i.
  herbicidal activity against SASKR found: 75

## CCC(=O)Nc1ccc(Cl)c(Cl)c1 [B.80, propanil]
[1]; [29]
  herbicidal activity against DIGSA found: 40%
[2]; [29]
  herbicidal activity against CONAR found: 20%
[6]; [29]
  herbicidal activity against ERICA found: 65%

## CC(C)N1C(=O)c2ccccc2[N-]S1(=O)=O.[Na+] [bentazon Na, bentazon-sodium]
[11]; [30]
  herbicidal activity against POLCO found: 40%
[4]; [30]
  herbicidal activity against AMARE found: 75%
[14]; [30]
  herbicidal activity against POLAV found: 40%

## COc1cc(OC)nc(NC(=O)NS(=O)(=O)c2ncccc2C(=O)N(C)C)n1 [B.51, nicosulfuron]
[7]; Matricaria chamomilla, post-emergence, 480 h, 20 g/ha a.i., read-out: herbicidal activity against MATCH found
  pest or weed control at 20 g/ha: 90%
[8]; 20 g/ha a.i.
  herbicidal activity against AMBEL found: 80
[20]
  herbicidal activity against POLPE found: 95
